The record followed here is US20260001888A1, “PYRAZOLOPYRIMIDINE PDE9 INHIBITORS” (Merck Sharp & Dohme LLC, priority 2018, published 2026).

The assay has as its target Human PDE9 (PDE9A2) (Homo sapiens (Human), UniProt O76083). Briefly: PDE9 IMAP fluorescence polarization (FP) inhibition assay. Format: biochemical. Conditions: apparent inhibition constant; human PDE9A2, FAM-cGMP substrate 50 nM, room temperature. The procedure:
The activity of the compounds in accordance with the present invention as PDE9 inhibitors may be readily determined without undue experimentation using a fluorescence polarization (FP) methodology that is well known in the art (Huang, W., et al., J. Biomol Screen, 2002, 7:215).
In a typical experiment the PDE9 inhibitory activity of the compounds of the present invention was determined in accordance with the following experimental method.
Human PDE9 (PDE9A2, GenBank Accession No. NM_001001567), full length with N-terminal GST tag, was purchased from BPS Bioscience. The fluorescence polarization assay for cyclic nucleotide phosphodiesterases was performed using an IMAP® FP kit supplied by Molecular Devices, Sunnyvale, CA (product #R8139). IMAP® technology has been applied previously to phosphodiesterase assays (Huang, W., et al., J. Biomol Screen, 2002, 7:215). Assays were performed at room temperature in 384-well microtiter plates with an incubation volume of 20.2 μL. Solutions of test compounds were prepared in DMSO and serially diluted with DMSO to yield 8 μL of each of 10 solutions differing by 3-fold in concentration, at 32 serial dilutions per plate. 100% inhibition is determined using a known PDE9 inhibitor, such as 1-(2-chlorophenyl)-6-[(2R)-3,3,3-trifluoro-2-methylpropyl]-1,5-dihydro-4H-pyrazolo[3,4-d]pyrimidine-4-one (BAY 73-6691) (Wunder et al, Mol. Pharmacol., 2005, 68 (6): 1775-81), (6-[(3S,4S)-4-methyl-1-(pyrimidin-2-ylmethyl) pyrrolidin-3-yl]-1-(tetrahydro-2H-pyran-4-yl)-1,5-dihydro-4H-pyrazolo[3,4-d]pyrimidin-4-one (PF-04447943) (Wager et al., ACS Chemical Neuroscience, 2010, 1:435-449). 0% of inhibition is determined by using DMSO (1% final concentrations). A Labcyte Echo 555 (Labcyte, Sunnyvale, CA) is used to dispense 200 nL from each well of the titration plate to the 384 well assay plate. Human PDE9A2 membrane preps were diluted to 1 ng/ml. […] PDE9 enzyme mix and compounds were mixed and incubated at room temperature for 30 min. Following which, FAMcGMP substrate was added, shaken and incubated for an additional 60 min at room temperature. The final concentration of human PDE9 membrane preparations were 0.5 ng/ml. The final concentration of FAM-cGMP was 50 nM. After the incubation period, the enzymatic reaction was stopped by addition of binding solution (IMAP-FP, Molecular Devices, comprised of 80% Solution A, 20% Solution B and a 1:600 dilution of binding reagent) to each well. The plates were shaken then incubated at room temperature for 1 h prior to determining the fluorescence polarization (mP) using a Perkin Elmer En Vision™ plate reader (Waltham, MA).
Fluorescence polarization (mP) was calculated from the parallel(S) and perpendicular (P) fluorescence of each sample well and the analogous values for the median control well, containing only substrate (So and Po), using the following equation: […]
Dose-inhibition profiles for each compound were characterized by fitting the mP data to a four-parameter equation given below. The apparent inhibition constant (KI), the maximum inhibition at the low plateau relative to “100% Inhibition Control” (Imax; e.g. 1=>same as this control), the minimum inhibition at the high plateau relative to the “0% Inhibition Control” (Imin, e.g. 0=>same as the no drug control) and the Hill slope (nH) are determined by a non-linear least squares fitting of the mP values as a function of dose of the compound using an in-house software based on the procedures described by Mosser et al., JALA, 2003, 8:54-63, using the following equation: […]
An apparent (Km) for FAM-labeled […] of 150 nM was determined in separate experiments through simultaneous variation of substrate and selected drug concentrations.
(In general: Polarisation of emitted light reports the rotation of a fluorescent probe.)

Chain of Human PDE9 (PDE9A2) (O76083 other isoform, or with tags, fused parts or gaps): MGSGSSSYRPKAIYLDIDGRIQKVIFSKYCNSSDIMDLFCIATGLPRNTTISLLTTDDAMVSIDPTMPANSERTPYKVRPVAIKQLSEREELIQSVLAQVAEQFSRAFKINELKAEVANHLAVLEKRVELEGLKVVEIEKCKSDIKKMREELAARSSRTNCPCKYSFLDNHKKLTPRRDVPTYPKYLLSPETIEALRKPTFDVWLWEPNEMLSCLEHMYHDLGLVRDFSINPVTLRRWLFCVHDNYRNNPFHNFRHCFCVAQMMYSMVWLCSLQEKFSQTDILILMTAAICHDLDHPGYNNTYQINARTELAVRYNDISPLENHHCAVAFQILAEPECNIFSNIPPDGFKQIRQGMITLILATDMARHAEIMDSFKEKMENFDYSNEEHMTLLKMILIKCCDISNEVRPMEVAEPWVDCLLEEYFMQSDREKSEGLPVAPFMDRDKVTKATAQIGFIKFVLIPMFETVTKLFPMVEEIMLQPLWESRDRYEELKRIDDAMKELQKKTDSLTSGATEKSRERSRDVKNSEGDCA

Take `CCC(c1ncccn1)N(C)c1nc2c(c(C#N)nn2C(C)c2ccc(C3CC3)nc2)c(=O)[nH]1` (single isomer, unassigned) [Example 1, 1-(1-(6-Cyclopropylpyridin-3-yl)ethyl)-6-(methyl(1-(pyrimidin-2-yl)propyl)amino)-4-oxo-4,5-dihydro-1H-pyrazolo[3,4-d]pyrimidine-3-carbonitrile]: the Ki was 3.2 nM.
For `CCC(c1ncccn1)N(C)c1nc2c(c(C#N)nn2C(C)c2ccc(C3CC3)nc2)c(=O)[nH]1` (single isomer, unassigned) [Example 2, 1-(1-(6-Cyclopropylpyridin-3-yl)ethyl)-6-(methyl(1-(pyrimidin-2-yl)propyl)amino)-4-oxo-4,5-dihydro-1H-pyrazolo[3,4-d]pyrimidine-3-carbonitrile], the Ki was determined as 5.24 nM.
On to `CCC(c1ncccn1)N(C)c1nc2c(c(C#N)nn2C(C)c2ccc(C3CC3)nc2)c(=O)[nH]1` (single isomer, unassigned) [Example 3, 1-(1-(6-Cyclopropylpyridin-3-yl)ethyl)-6-(methyl(1-(pyrimidin-2-yl)propyl)amino)-4-oxo-4,5-dihydro-1H-pyrazolo[3,4-d]pyrimidine-3-carbonitrile], for which the Ki came out at 1.82 nM.
`CCC(c1ncccn1)N(C)c1nc2c(c(C#N)nn2C(C)c2ccc(C3CC3)nc2)c(=O)[nH]1` (single isomer, unassigned) [Example 4, 1-(1-(6-Cyclopropylpyridin-3-yl)ethyl)-6-(methyl(1-(pyrimidin-2-yl)propyl)amino)-4-oxo-4,5-dihydro-1H-pyrazolo[3,4-d]pyrimidine-3-carbonitrile]: the Ki worked out at 0.03 nM.
For `CC(c1ncccn1)N(C)c1nc2c(c(C#N)nn2C(C)c2ccc(C(F)(F)F)nc2)c(=O)[nH]1` (single isomer, unassigned) [Example 5, 6-[methyl(1-pyrimidin-2-ylethyl)amino]-4-oxo-1-[1-[6-(trifluoromethyl)-3-pyridyl]ethyl]-5H-pyrazolo[3,4-d]pyrimidine-3-carbonitrile] the value was 2.3 nM.
Turning to `CC(c1ncccn1)N(C)c1nc2c(c(C#N)nn2C(C)c2ccc(C(F)(F)F)nc2)c(=O)[nH]1` (single isomer, unassigned) [Example 6, 6-[methyl(1-pyrimidin-2-ylethyl)amino]-4-oxo-1-[1-[6-(trifluoromethyl)-3-pyridyl]ethyl]-5H-pyrazolo[3,4-d]pyrimidine-3-carbonitrile], the Ki was 6.21 nM.
For the molecule `CC(c1ncccn1)N(C)c1nc2c(c(C#N)nn2C(C)c2ccc(C(F)(F)F)nc2)c(=O)[nH]1` (single isomer, unassigned) [Example 7, 6-[methyl(1-pyrimidin-2-ylethyl)amino]-4-oxo-1-[1-[6-(trifluoromethyl)-3-pyridyl]ethyl]-5H-pyrazolo[3,4-d]pyrimidine-3-carbonitrile], the Ki is 20.8 nM.
Regarding `CC(c1ncccn1)N(C)c1nc2c(c(C#N)nn2C(C)c2ccc(C(F)(F)F)nc2)c(=O)[nH]1` (single isomer, unassigned) [Example 8, 6-[methyl(1-pyrimidin-2-ylethyl)amino]-4-oxo-1-[1-[6-(trifluoromethyl)-3-pyridyl]ethyl]-5H-pyrazolo[3,4-d]pyrimidine-3-carbonitrile], the Ki stood at 243 nM.
For the molecule `CCC(c1ncccn1)N(C)c1nc2c(c(C#N)nn2C(C)c2ccc(C(F)(F)F)nc2)c(=O)[nH]1` (single isomer, unassigned) [Example 9, 6-[methyl(1-pyrimidin-2-ylpropyl)amino]-4-oxo-1-[1-[6-(trifluoromethyl)-3-pyridyl]ethyl]-5H-pyrazolo[3,4-d]pyrimidine-3-carbonitrile], the Ki was 0.14 nM.
In the case of `CCC(c1ncccn1)N(C)c1nc2c(c(C#N)nn2C(C)c2ccc(C(F)(F)F)nc2)c(=O)[nH]1` (single isomer, unassigned) [Example 10, 6-[methyl(1-pyrimidin-2-ylpropyl)amino]-4-oxo-1-[1-[6-(trifluoromethyl)-3-pyridyl]ethyl]-5H-pyrazolo[3,4-d]pyrimidine-3-carbonitrile], the Ki was 9.98 nM.
For `CCC(c1ncccn1)N(C)c1nc2c(c(C#N)nn2C(C)c2ccc(C(F)(F)F)nc2)c(=O)[nH]1` (single isomer, unassigned) [Example 11, 6-[methyl(1-pyrimidin-2-ylpropyl)amino]-4-oxo-1-[1-[6-(trifluoromethyl)-3-pyridyl]ethyl]-5H-pyrazolo[3,4-d]pyrimidine-3-carbonitrile] the value was 24.5 nM; for `CCC(c1ncccn1)N(C)c1nc2c(c(C#N)nn2C(C)c2ccc(C(F)(F)F)nc2)c(=O)[nH]1` (single isomer, unassigned) [Example 12, 6-[methyl(1-pyrimidin-2-ylpropyl)amino]-4-oxo-1-[1-[6-(trifluoromethyl)-3-pyridyl]ethyl]-5H-pyrazolo[3,4-d]pyrimidine-3-carbonitrile], 39 nM.
In the case of `CCC(c1ncccn1)N(C)c1nc2c(c(C#N)nn2C(C)c2ccc(C(F)(F)F)cc2)c(=O)[nH]1` (single isomer, unassigned) [Example 13, 6-[methyl(1-pyrimidin-2-ylpropyl)amino]-4-oxo-1-[1-[4-(trifluoromethyl)phenyl]ethyl]-5H-pyrazolo[3,4-d]pyrimidine-3-carbonitrile], the Ki was found to be 5.2 nM.
Next, `CCC(c1ncccn1)N(C)c1nc2c(c(C#N)nn2C(C)c2ccc(C(F)(F)F)cc2)c(=O)[nH]1` (single isomer, unassigned) [Example 14, 6-[methyl(1-pyrimidin-2-ylpropyl)amino]-4-oxo-1-[1-[4-(trifluoromethyl)phenyl]ethyl]-5H-pyrazolo[3,4-d]pyrimidine-3-carbonitrile]: 0.01 nM; `CCC(c1ncccn1)N(C)c1nc2c(c(C#N)nn2C(C)c2ccc(C(F)(F)F)cc2)c(=O)[nH]1` (single isomer, unassigned) [Example 15, 6-[methyl(1-pyrimidin-2-ylpropyl)amino]-4-oxo-1-[1-[4-(trifluoromethyl)phenyl]ethyl]-5H-pyrazolo[3,4-d]pyrimidine-3-carbonitrile]: 2.82 nM.
Take `CCC(c1ncccn1)N(C)c1nc2c(c(C#N)nn2C(C)c2ccc(C(F)(F)F)cc2)c(=O)[nH]1` (single isomer, unassigned) [Example 16, 6-[methyl(1-pyrimidin-2-ylpropyl)amino]-4-oxo-1-[1-[4-(trifluoromethyl)phenyl]ethyl]-5H-pyrazolo[3,4-d]pyrimidine-3-carbonitrile]: the Ki came out at 11.1 nM.
`CCC(c1ncc(C(F)F)cn1)N(C)c1nc2c(c(C#N)nn2C(C)c2ccc(C(F)(F)F)nc2)c(=O)[nH]1` (single isomer, unassigned) [Example 17, 6-[1-[5-(difluoromethyl)pyrimidin-2-yl]propyl-methyl-amino]-4-oxo-1-[1-[6-(trifluoromethyl)-3-pyridyl]ethyl]-5H-pyrazolo[3,4-d]pyrimidine-3-carbonitrile]: the Ki stood at 0.01 nM.
Regarding `CCC(c1ncc(C(F)F)cn1)N(C)c1nc2c(c(C#N)nn2C(C)c2ccc(C(F)(F)F)nc2)c(=O)[nH]1` (single isomer, unassigned) [Example 18, 6-[1-[5-(difluoromethyl)pyrimidin-2-yl]propyl-methyl-amino]-4-oxo-1-[1-[6-(trifluoromethyl)-3-pyridyl]ethyl]-5H-pyrazolo[3,4-d]pyrimidine-3-carbonitrile], the Ki came out at 2.07 nM.
As for `CCC(c1ncc(C(F)F)cn1)N(C)c1nc2c(c(C#N)nn2C(C)c2ccc(C(F)(F)F)nc2)c(=O)[nH]1` (single isomer, unassigned) [Example 19, 6-[1-[5-(difluoromethyl)pyrimidin-2-yl]propyl-methyl-amino]-4-oxo-1-[1-[6-(trifluoromethyl)-3-pyridyl]ethyl]-5H-pyrazolo[3,4-d]pyrimidine-3-carbonitrile], the Ki was 7.36 nM.
